The molecules below were run on KM12 (assay: Antiproliferative activity against human KM12 cells expressing TPM3-TRKA assessed as reduction in cell viability measured after 3 days by Celltiter-Glo assay). Conditions: KM12, 72 h.
Type: functional, cell-based

SMILES	IC50
O=C(CN1CCN(c2cccc(-c3cnc4ccc(N5CCC[C@@H]5c5cccc(F)c5)nn34)n2)CC1)NCCOCCNc1cccc2c1C(=O)N(C1CCC(=O)NC1=O)C2=O (stereo not given in full)	3.8 nM
O=C(CN1CCN(c2cccc(-c3cnc4ccc(N5CCC[C@@H]5c5cccc(F)c5)nn34)n2)CC1)NCCNc1ccc2c(c1)C(=O)N(C1CCC(=O)NC1=O)C2=O (stereo not given in full)	0.9 nM
O=C1CCC(N2C(=O)c3ccc(NCCCCC(=O)N4CCN(c5cccc(-c6cnc7ccc(N8CCC[C@@H]8c8cccc(F)c8)nn67)n5)CC4)cc3C2=O)C(=O)N1 (stereo not given in full)	0.9 nM
O=C1CCC(N2C(=O)c3ccc(NCCN4CCN(c5cccc(-c6cnc7ccc(N8CCC[C@@H]8c8cccc(F)c8)nn67)n5)CC4)cc3C2=O)C(=O)N1 (stereo not given in full)	3.4 nM
O=C1CCC(N2C(=O)c3ccc(NCCOCCOCCOCCOCCC(=O)N4CCN(c5ccc(C(=O)Nc6n[nH]c7ccc(Cc8cc(F)cc(F)c8)cc67)c(NC6CCOCC6)c5)CC4)cc3C2=O)C(=O)N1 (stereo not given)	1.6 nM
O=C1CCC(N2C(=O)c3ccc(N4CC(C(=O)N5CCN(c6cccc(-c7cnc8ccc(N9CCC[C@@H]9c9cccc(F)c9)nn78)n6)CC5)C4)cc3C2=O)C(=O)N1 (stereo not given in full)	2 nM
OC1CCN(c2cc(-c3cccc(-c4cnc5ccc(N6CCC[C@@H]6c6cccc(F)c6)nn45)n3)ccn2)CC1	46.7 nM
O=C1CCC(N2C(=O)c3cccc(NCCCC(=O)N4CCN(c5ccc(C(=O)Nc6n[nH]c7ccc(Cc8cc(F)cc(F)c8)cc67)c(NC6CCOCC6)c5)CC4)c3C2=O)C(=O)N1 (stereo not given)	1.5 nM
O=C(CN1CCN(c2cccc(-c3cnc4ccc(N5CCC[C@@H]5c5cccc(F)c5)nn34)n2)CC1)NCCOCCNc1ccc2c(c1)C(=O)N(C1CCC(=O)NC1=O)C2=O (stereo not given in full)	0.9 nM
CN1CCN(c2ccc(C(=O)Nc3n[nH]c4ccc(Cc5cc(F)cc(F)c5)cc34)c(NC3CCOCC3)c2)CC1 [ENTRECTINIB]	4.3 nM

Reference: ChEMBL document CHEMBL4616688, “PROTAC Compounds Targeting TRK for Use in Cancer Therapeutics” (ACS Med Chem Lett, 2020)
